Target: PARP1 (Homo sapiens, UniProt P09874)
Assay: DARTS
Format: binding
Set-up: Total cellular proteins from PANC‐1 and KP4 were extracted using M‐PER lysis buffer; endogenous in cells; host or cells: PANC-1 and KP4 pancreatic cancer cells
Conditions: enzyme-lysate ratio 1:3000, higher ZQJ29 concentrations
Protocol: Total cellular proteins from PANC‐1 and KP4 were extracted using M‐PER lysis buffer (Thermo Fisher, USA). Aliquots of 50 µg of protein were taken from the lysate and placed into each 1.5 mL tube. Different concentrations of ZQJ29 were added to some tubes, while control tubes received an equal amount of DMSO. The mixtures were incubated at room temperature for 1 h. After incubation, Pronase was added to the mixture of cellular proteins at a ratio of Pronase: protein = 1: 3000 for digestion at room temperature for 15 min. Following digestion, 5 × loading buffer was added, and the samples were heated at 100 °C for 10 min before being used for western blot analysis.

PARP1, sequence (P09874 whole entry): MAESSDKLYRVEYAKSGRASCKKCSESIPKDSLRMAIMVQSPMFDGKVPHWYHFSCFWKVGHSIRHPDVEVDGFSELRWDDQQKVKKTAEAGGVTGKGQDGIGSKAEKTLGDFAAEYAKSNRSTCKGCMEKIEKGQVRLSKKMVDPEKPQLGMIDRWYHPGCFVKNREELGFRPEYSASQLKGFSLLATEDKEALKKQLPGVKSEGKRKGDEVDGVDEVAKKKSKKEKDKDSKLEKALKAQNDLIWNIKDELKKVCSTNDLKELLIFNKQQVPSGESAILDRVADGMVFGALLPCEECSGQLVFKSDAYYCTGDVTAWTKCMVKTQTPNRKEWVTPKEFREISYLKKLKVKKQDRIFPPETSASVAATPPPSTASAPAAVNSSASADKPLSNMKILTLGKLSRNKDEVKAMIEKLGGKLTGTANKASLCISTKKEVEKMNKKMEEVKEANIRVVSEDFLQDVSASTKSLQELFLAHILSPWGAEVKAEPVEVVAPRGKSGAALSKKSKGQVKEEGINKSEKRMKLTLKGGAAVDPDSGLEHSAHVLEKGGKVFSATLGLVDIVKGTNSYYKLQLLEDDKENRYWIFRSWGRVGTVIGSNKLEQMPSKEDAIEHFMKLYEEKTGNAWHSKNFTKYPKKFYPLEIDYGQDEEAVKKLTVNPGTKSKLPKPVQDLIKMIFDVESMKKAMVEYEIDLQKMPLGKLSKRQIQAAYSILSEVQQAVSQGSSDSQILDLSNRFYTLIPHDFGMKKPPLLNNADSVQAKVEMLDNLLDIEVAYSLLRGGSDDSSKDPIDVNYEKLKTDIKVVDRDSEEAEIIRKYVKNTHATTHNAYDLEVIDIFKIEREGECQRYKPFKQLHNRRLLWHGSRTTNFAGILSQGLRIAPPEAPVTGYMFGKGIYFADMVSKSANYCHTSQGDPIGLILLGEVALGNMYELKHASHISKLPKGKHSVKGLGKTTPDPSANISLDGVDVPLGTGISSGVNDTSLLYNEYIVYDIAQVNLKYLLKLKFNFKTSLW

SMILES: CC1CCC2C(C)C(OCCN(C#N)CCOC3OC4OC5(C)CCC6C(C)CCC(C3C)C46OO5)OC3OC4(C)CCC1C32OO4 (stereo not shown) [ZQJ29]
- PARP1 accumulation after pronase digestion: increased

Reference: paper PMC12362764, “Novel Cyano‐Artemisinin Dimer ZQJ29 Targets PARP1 to Induce Ferroptosis in Pancreatic Cancer Treatment” (Advanced Science, 2025)
